Experimental data from the supplement of paper PMC10331698.
± gives the standard deviation of the averaged measurements.

Legend:
Assay in all cases: level (log10 ratio to DMSO vehicle control); higher = higher biomarker level / cell amount than vehicle control
Methotrexate = compound: CN(Cc1cnc2nc(N)nc(N)c2n1)c1ccc(C(=O)N[C@@H](CCC(=O)O)C(=O)O)cc1 [Methotrexate]; conditions: in DMSO
Experimental: (§1)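 BioMAP Diversity Plus panel of 12 human primary cell co-culture systems (3C, 4H, LPS, SAg, BT, BF4T, BE3C, CASM3C, HDF3CGF, KF3CT, MyoF, Mphg). Compounds were added 1 h before stimulation and left for 24 h (MyoF 48 h; BT 72 h for soluble read-outs or 6 d for IgG). Biomarkers were read by ELISA, cytotoxicity by SRB, PBMC viability and proliferation by Alamar Blue. Each well value was divided by the mean of 8 DMSO control wells on the same plate and log10 transformed; duplicate blinded samples were tested at 4 concentrations.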

[1] = compound: FC(F)(I)C(F)(F)C(F)(F)C(F)(F)C(F)(F)C(F)(F)I [1,6-Diiodoperfluorohexane]; conditions: 6700 nM; in DMSO
Experimental: as §1

[2] = compound: O=C(Cl)C(F)(F)C(F)(F)C(F)(F)C(=O)Cl [Hexafluoroglutaryl chloride]; conditions: in DMSO
Experimental: as §1

Tetrafluorosuccinic acid = compound: O=C(O)C(F)(F)C(F)(F)C(=O)O [Tetrafluorosuccinic acid]; conditions: in DMSO
Experimental: as §1

[3] = compound: O=S(=O)(O)CCC(F)(F)C(F)(F)C(F)(F)C(F)(F)F [4:2 Fluorotelomer sulfonic acid]; conditions: in DMSO
Experimental: as §1

Perfluoropinacol = compound: OC(C(F)(F)F)(C(F)(F)F)C(O)(C(F)(F)F)C(F)(F)F [Perfluoropinacol]; conditions: in DMSO
Experimental: as §1

[4] = compound: OCC(F)(F)C(F)(F)C(F)(F)C(F)(F)C(F)(F)C(F)(F)F [6:1 Fluorotelomer alcohol]; conditions: in DMSO
Experimental: as §1

Test System	level (log10) (Methotrexate; 1500 nM)	level (log10) (Methotrexate; 4400 nM)	level (log10) (Methotrexate; 13000 nM)	level (log10) (Methotrexate; 40000 nM)	level (log10) [1]	level (log10) ([2]; 6700 nM)	level (log10) ([2]; 20000 nM)	level (log10) ([2]; 60000 nM)	level (log10) (Tetrafluorosuccinic acid; 6700 nM)	level (log10) (Tetrafluorosuccinic acid; 20000 nM)	level (log10) (Tetrafluorosuccinic acid; 60000 nM)	level (log10) ([3]; 6700 nM)	level (log10) ([3]; 20000 nM)	level (log10) ([3]; 60000 nM)	level (log10) (Perfluoropinacol; 6700 nM)	level (log10) (Perfluoropinacol; 20000 nM)	level (log10) ([4]; 6700 nM)	level (log10) ([4]; 20000 nM)	level (log10) ([4]; 60000 nM)
CASM3C:Serum Amyloid A	-0.0405 ± 0.015	-0.0145 ± 0.028	0.002 ± 0.045	-0.044 ± 0.068	-0.008	-0.022 ± 0.038	-0.008 ± 0.0042	-0.002 ± 0.0014	0.011 ± 0.011	0.017 ± 0.018	0.025 ± 0.037	-0.008 ± 0.017	-0.0055 ± 0.0021	-0.015 ± 0.041	0.0545 ± 0.0078	0.0595 ± 0.015	-0.001 ± 0.013	0.01 ± 0.017	-0.052 ± 0.018
HDF3CGF:CCL2/MCP-1	-0.0395 ± 0.059	-0.0325 ± 0.093	-0.0425 ± 0.071	-0.0435 ± 0.11	-0.68	-0.036 ± 0.0099	-0.0285 ± 0.037	0.0095 ± 0.00071	-0.035 ± 0.0099	-0.0415 ± 0.0064	-0.0275 ± 0.012	-0.008 ± 0.0071	-0.009 ± 0.017	0.0105 ± 0.028	0.0595 ± 0.0064	0.09 ± 0.0085	-0.014 ± 0.028	-0.013 ± 0.057	-0.044 ± 0.082
HDF3CGF:CD54/ICAM-1	-0.0015 ± 0.00071	0.0045 ± 0.005	0.0055 ± 0.013	-0.0065 ± 0.025	-0.343	-0.0015 ± 0.0035	-0.007 ± 0.0042	-0.001 ± 0.0099	-0.0055 ± 0.03	-0.006 ± 0.0071	-0.0105 ± 0.016	-0.013 ± 0.016	-0.01 ± 0.017	-0.0175 ± 0.013	0.012 ± 0.011	0.005 ± 0.018	-0.0075 ± 0.011	0.008 ± 0.02	0.0075 ± 0.011
HDF3CGF:CD106/VCAM-1	0.028 ± 0.031	0.01 ± 0.03	0.0355 ± 0.069	-0.0225 ± 0.1	-0.335	-0.013 ± 0.0085	0.0205 ± 0.049	-0.041 ± 0.014	0.003 ± 0.027	-0.029 ± 0.037	-0.033 ± 0.045	0.0515 ± 0.081	0.0365 ± 0.094	0.021 ± 0.11	-0.089 ± 0.037	-0.228 ± 0.0014	-0.0135 ± 0.013	0.004 ± 0.044	-0.681 ± 0.28
HDF3CGF:CXCL8/IL-8	-0.0035 ± 0.011	-0.0075 ± 0.0064	0.0145 ± 0.0035	0.004 ± 0.0085	-0.276	0.0025 ± 0.012	-0.0015 ± 0.005	0.013 ± 0.018	-0.01 ± 0.0085	-0.004 ± 0.0085	-0.0055 ± 0.0078	-0.011 ± 0.016	-0.0025 ± 0.0021	0.007 ± 0.017	0.025 ± 0.0071	0.02 ± 0.0028	0.0005 ± 0.0092	0.001 ± 0.013	-0.046 ± 0.052
HDF3CGF:CXCL9/MIG	0.002 ± 0.045	-0.003 ± 0.023	-0.0205 ± 0.036	-0.0165 ± 0.057	-0.463	0.0125 ± 0.018	-0.0055 ± 0.0064	0.0075 ± 0.012	-0.0285 ± 0.029	-0.039 ± 0.065	-0.06 ± 0.086	-0.01 ± 0.02	-0.0025 ± 0.029	-0.023 ± 0.025	-0.018 ± 0.018	-0.0675 ± 0.012	-0.001 ± 0.0042	-0.012 ± 0.011	-0.0175 ± 0.0078
HDF3CGF:CXCL10/IP-10	0.013 ± 0.0028	0.002 ± 0.0057	0.0035 ± 0.00071	-0.001 ± 0.016	-0.315	-0.013 ± 0.021	-0.01 ± 0.016	-0.0235 ± 0.0035	-0.0225 ± 0.0078	-0.027 ± 0.04	-0.0425 ± 0.064	0.0085 ± 0.0078	-0.013 ± 0.016	-0.0205 ± 0.06	-0.0535 ± 0.023	-0.215 ± 0.012	-0.002 ± 0.0014	-0.017 ± 0.044	-0.401 ± 0.061
HDF3CGF:CXCL11/I-TAC	-0.0095 ± 0.013	-0.0105 ± 0.033	-0.008 ± 0.023	-0.018 ± 0.05	-0.434	-0.015 ± 0.0057	-0.0145 ± 0.022	-0.0085 ± 0.013	-0.03 ± 0.035	-0.0215 ± 0.005	-0.0565 ± 0.071	-0.0475 ± 0.059	-0.037 ± 0.064	-0.089 ± 0.024	-0.062 ± 0.041	-0.234 ± 0.015	-0.009 ± 0.016	-0.014 ± 0.0071	-0.22 ± 0.35
HDF3CGF:Collagen I	-0.0495 ± 0.079	-0.077 ± 0.083	-0.068 ± 0.095	-0.0415 ± 0.035	0.053	-0.025 ± 0.023	0.002	0.0065 ± 0.028	-0.0515 ± 0.025	-0.0235 ± 0.018	-0.0305 ± 0.029	-0.0015 ± 0.054	-0.007 ± 0.0057	0.0385 ± 0.018	-0.0205 ± 0.0092	-0.0685 ± 0.015	-0.01 ± 0.0085	-0.0005 ± 0.005	0.0145 ± 0.039
HDF3CGF:Collagen III	0.0115 ± 0.061	-0.002 ± 0.072	0.004 ± 0.013	-0.026 ± 0.086	-0.358	-0.027 ± 0.0028	-0.06 ± 0.031	-0.023 ± 0.028	-0.058 ± 0.057	-0.0805 ± 0.059	-0.118 ± 0.02	-0.0795 ± 0.13	-0.0585 ± 0.14	-0.0265 ± 0.09	0.0175 ± 0.0078	-0.0845 ± 0.0064	-0.0865 ± 0.14	0.0115 ± 0.074	-0.367 ± 0.052
HDF3CGF:EGFR	-0.0035 ± 0.018	-0.008 ± 0.0099	-0.011 ± 0.028	-0.021 ± 0.027	-0.044	-0.0195 ± 0.012	-0.0115 ± 0.011	-0.01 ± 0.057	-0.0065 ± 0.033	-0.008 ± 0.0028	0.029 ± 0.038	-0.0575 ± 0.093	-0.042 ± 0.054	-0.019 ± 0.079	-0.029 ± 0.057	-0.146 ± 0.038	0.009 ± 0.041	0.0125 ± 0.019	-0.0555 ± 0.035
HDF3CGF:M-CSF	-0.051 ± 0.076	-0.0445 ± 0.077	-0.033 ± 0.1	-0.0655 ± 0.17	-0.454	-0.003 ± 0.02	-0.0035 ± 0.016	0 ± 0.0099	-0.0505 ± 0.018	-0.0735 ± 0.0035	-0.048 ± 0.0099	-0.038 ± 0.05	-0.062 ± 0.05	-0.0835 ± 0.019	-0.024 ± 0.055	-0.239 ± 0.049	0 ± 0.02	0.0355 ± 0.0092	-0.225 ± 0.03
HDF3CGF:MMP-1	-0.0085 ± 0.005	-0.0135 ± 0.0021	0.0005 ± 0.0021	0.0065 ± 0.028	-0.303	0.0195 ± 0.012	0.013 ± 0.0042	0.018	0.0295 ± 0.015	0.0315 ± 0.021	0.0195 ± 0.022	-0.009 ± 0.0028	-0.0285 ± 0.028	-0.0365 ± 0.026	0.024 ± 0.023	0.017 ± 0.014	0.002 ± 0.0099	0.008 ± 0.0071	-0.0355 ± 0.07
